PubChem BioAssay (NCI)
Where “and” joins values, the source holds several entries; their conditions need not be identical. Equal values may be shown once.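 Each compound was tested at five concentrations against cells in 96-well plates for 48 hours. GI50 = concentration required for 50% inhibition of growth. TGI is the concentration that stops growth completely.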

Key:
Experiment in all cases: NCI-60 cell line screen, 48 h
BT-549 breast = test system: BT-549 breast
COLO 205 colon = test system: COLO 205 colon
HCT-116 colon = test system: HCT-116 colon
MDA-MB-435 = test system: MDA-MB-435
NCI-H522 lung = test system: NCI-H522 lung
OVCAR-5 ovarian = test system: OVCAR-5 ovarian
SF-539 CNS = test system: SF-539 CNS
SR leukemia = test system: SR leukemia
UACC-257 melanoma = test system: UACC-257 melanoma
UO-31 renal = test system: UO-31 renal

Compound | GI50 (BT-549 breast) [µM] | TGI (BT-549 breast) | GI50 (COLO 205 colon) [µM] | TGI (COLO 205 colon) | GI50 (HCT-116 colon) [µM] | TGI (HCT-116 colon) | GI50 (MDA-MB-435) [µM] | TGI (MDA-MB-435) | GI50 (NCI-H522 lung) [µM] | TGI (NCI-H522 lung) | GI50 (OVCAR-5 ovarian) [µM] | TGI (OVCAR-5 ovarian) | GI50 (SF-539 CNS) [µM] | TGI (SF-539 CNS) | GI50 (SR leukemia) [µM] | TGI (SR leukemia) | GI50 (UACC-257 melanoma) [µM] | TGI (UACC-257 melanoma) | GI50 (UO-31 renal) [µM] | TGI (UO-31 renal) [µM]
COC1=C(OC)C(=O)C(C/C=C(\C)CC/C=C(\C)CC/C=C(\C)CC/C=C(\C)CC/C=C(\C)CC/C=C(\C)CC/C=C(\C)CC/C=C(\C)CC/C=C(\C)CCC=C(C)C)=C(C)C1=O | > 100 | > 100 µM | > 100 | > 100 µM | > 100 | > 100 µM | > 100 | > 100 µM | > 100 | > 100 µM | > 100 | > 100 µM | > 100 | > 100 µM | > 100 | > 100 µM | > 100 | > 100 µM | > 100 | > 100
COc1cc(/C=C/C(=O)CC(=O)/C=C/c2cc(OC)c(O)c(OC)c2)cc(OC)c1O | 13.4 | 25 µM and 34.4 µM | 19.3 | 25 µM and 40.2 µM | 17.2 | 13.3 µM and > 100 µM |  | 16.3 µM and 24 µM | 3.75 | 15 µM and 14 µM | 27.1 | 25 µM and 83.5 µM | 44.2 | 25 µM and > 100 µM | 7.56 | 25 µM and > 100 µM | 23.5 | 25 µM and > 100 µM | 41.2 | > 100
COC(=O)CC1(O)C=CC(=O)C=C1 |  | 18.1 µM |  | 17.8 µM |  | 26.7 µM |  | 21.8 µM |  | 4.04 µM |  | 25 µM |  | 12.8 µM |  | > 100 µM |  | 7.64 µM |  | 9.93
NC(N)=NC(N)=Nc1ccc(C(=O)O)cc1 |  | > 100 µM |  | > 100 µM |  | > 100 µM |  | > 100 µM |  | > 100 µM |  | > 100 µM |  | > 100 µM |  | > 100 µM |  | > 100 µM |  | > 100
COc1ccc(Nc2ncnc3ccc(-c4cncc(NS(C)(=O)=O)c4)cc23)cc1Cl | 1.67 | 7.12 µM | 1.8 | 4.47 µM | 2.05 | 5.69 µM | 3.19 | 15.3 µM | 1.18 | 4.08 µM | 2.87 | 29 µM | 1.84 | 7.72 µM | 1.42 | 5.86 µM | 2.82 | 14 µM | 3.04 | 22.5
C=C(C)[C@@H]1CCc2c(O)c(O)c(=O)cc(C)c2C1 |  | > 100 µM |  | 15 µM |  | > 100 µM |  | > 100 µM |  | > 96.6 µM |  | > 100 µM |  | 7.4 µM |  | > 20.3 µM |  | > 100 µM |  | > 25.5
CCN(CC)CCCNCc1cc(-c2ccccc2)nc2cc(Cl)ccc12 | 8.65 | 21.6 µM | 1.74 | 3.27 µM | 1.46 | 4.28 µM | 1.84 | 3.81 µM | 4.96 | 17.2 µM | 7.83 | 21.7 µM | 1.02 | 2.55 µM | 0.716 | 5.38 µM | 2.12 | 5.11 µM | 1.78 | 11.5
Cc1cc(=O)[nH]c(N/N=C/c2ccccc2O)n1 | 25.3 | > 100 µM | 3.81 | > 100 µM | 2.46 | > 100 µM | 18.7 | > 100 µM | 7.67 | > 100 µM | 7.42 | > 100 µM | 7.06 | > 100 µM | 6.22 | > 100 µM | 3.67 | 34.7 µM | 5.3 | > 100
Cc1nn(C)c2ncnc(N/N=C/c3cccc(O)c3O)c12 | 0.602 | > 100 µM | 1.11 | > 78.7 µM | 0.568 | > 100 µM | 0.609 | > 100 µM | 0.41 | > 48.2 µM | 4.06 | > 100 µM | 0.371 | 7.1 µM | 0.269 | 16.3 µM | 1.38 | > 37.1 µM | 0.251 | 2.19
COc1cc(F)c(F)cc1C(=O)c1cnc(NC2CCN(S(C)(=O)=O)CC2)nc1N | 4.29 | 18.6 µM | 2.42 | 6.14 µM | 2.16 | > 25 µM | 3.55 | > 25 µM | 4.67 | > 25 µM | 2.62 | > 23.1 µM | 3.85 | 11.1 µM | 1.23 | 10.2 µM | 3.56 | > 22.7 µM | 4.75 | > 19.8
CC(C)C[C@H](NC(=O)Cn1cccc(CNC(=O)c2ccccc2)c1=O)B(O)O | 0.162 | 1.54 µM | 1.65 | 97.8 µM | 0.337 | 2.65 µM | 0.158 | 0.355 µM | 0.377 | 2.3 µM | 2.76 | 38.9 µM | 0.133 | 0.454 µM | 0.304 | > 100 µM | 0.505 | 3.53 µM | 4 | 23
Cc1ccc(S(=O)(=O)n2cc([C@@]3(O)C[C@H](CSC#N)OC3=O)c3ccccc32)cc1 | 16.9 | 33.1 µM | 6.42 | 33.6 µM | 5.07 | 17.7 µM | 6.78 | 24.6 µM | 3.99 | 18.1 µM | 13.2 | 28.2 µM | 4.57 | 16.2 µM | 0.41 | 4.76 µM | 10.9 | 56.4 µM | 4.62 | 19.3
C=C(C(=O)OC)[C@@H]1CC2OC1C(=O)C(C)CCC/C(C)=C/CC[C@@]2(C)O (some centres undefined) | 25.2 | 55.7 µM | 25.1 | 78.7 µM | 13.4 | 26.2 µM | 25.9 | 79.4 µM | 19.1 | 48.4 µM | 76.7 | > 100 µM | 18.4 | 36.4 µM | 5.1 | 25.1 µM | 23.3 | 76.3 µM | 16.4 | 31.2
O=c1cc(-c2ccccc2)[nH]c2c1CCCC2 | 21.5 | > 100 µM | 1.99 | 6.42 µM | 3.34 | > 100 µM | 0.29 | 0.992 µM | 2 | 6.71 µM | 14.8 | > 100 µM | 2.92 | > 100 µM | 0.835 | > 100 µM | 67 | > 100 µM | 5.49 | > 100
COc1ccc(CSC2=C(C#N)C(=O)NC3(CCCCC3)S2)cc1 |  | > 100 µM |  | > 100 µM |  | > 100 µM |  | 38.2 µM |  | 97.2 µM |  | > 100 µM |  | > 100 µM |  | > 100 µM |  | > 100 µM |  | > 100
COc1c(OC)c(OC)c2c(=O)cc(-c3ccc(OC(C)C)cc3)oc2c1OC |  | > 49.9 µM |  | > 50.2 µM |  | 23.6 µM |  | > 53.5 µM |  | > 58.2 µM |  | > 51.9 µM |  | 51.2 µM |  | > 26.2 µM |  | > 58.9 µM |  | > 47.3
COc1ccc2nc(C)cc(Sc3nc4ccccc4s3)c2c1 | 1.28 | 4.45 µM | 0.816 | 2.58 µM | 1.14 | 3.15 µM | 1.76 | 5.39 µM | 1.31 | 3.15 µM | 1.79 | 8.19 µM | 1.73 | 4.04 µM | 0.432 | 2.46 µM | 4.25 | 25.5 µM | 0.385 | 5.43
O=C1C=CC(=O)c2c1ccc1c3ccccc3n(Cc3ccccc3)c21 |  | 43.9 µM |  | 38.9 µM |  | 51.9 µM |  | > 56.8 µM |  | 19.9 µM |  | 72.4 µM |  | > 74.1 µM |  | > 28.7 µM |  | 40.9 µM |  | 50.1
CN(C)CCN1C(=O)c2cccc3c(/C=C/CN4C(=O)c5cccc6cccc(c56)C4=O)ccc(c23)C1=O | 43.5 | > 100 µM | > 100 | > 100 µM | 56.9 | > 100 µM | > 100 | > 100 µM | > 100 | > 100 µM | 35.5 | > 100 µM | 6.33 | 19.5 µM | 39.2 | > 100 µM | > 100 | > 100 µM | 17.4 | 48.2
